Assay results taken from PMC9501983, “Transport and Permeation Properties of Dapivirine: Understanding Potential Drug-Drug Interactions” (Pharmaceutics, 2022).

Key:
P-gp = target: T1, P-gp (Homo sapiens, UniProt P08183); assay: Bi-directional transport across MDCKII P-gp and WT cell monolayers; assay type: in vitro ADME
T1 construct: expressed in transfected cells; host or cells: MDCKII (Madin-Darby canine kidney) cells, provided by Dr. Philip E. Empey

ENT1 = target: T2, ENT1 (Homo sapiens, UniProt Q99808); assay: Cellular uptake in HEK293 ENT1 and EV cells; assay type: in vitro ADME
T2 construct: host or cells: HEK293
T2 sequence (Q99808 1-456): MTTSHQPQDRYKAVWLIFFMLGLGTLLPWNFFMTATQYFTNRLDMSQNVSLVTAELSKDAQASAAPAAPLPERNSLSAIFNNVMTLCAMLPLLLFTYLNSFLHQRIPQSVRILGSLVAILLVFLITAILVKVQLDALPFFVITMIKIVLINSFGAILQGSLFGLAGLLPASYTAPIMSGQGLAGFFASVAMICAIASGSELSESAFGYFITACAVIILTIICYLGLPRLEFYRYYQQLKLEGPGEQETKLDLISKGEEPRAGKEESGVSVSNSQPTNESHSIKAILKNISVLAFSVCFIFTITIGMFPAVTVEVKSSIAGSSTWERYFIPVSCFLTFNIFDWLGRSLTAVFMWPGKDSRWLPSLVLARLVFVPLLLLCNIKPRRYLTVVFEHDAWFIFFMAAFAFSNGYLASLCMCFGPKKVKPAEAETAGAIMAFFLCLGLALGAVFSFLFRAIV
Protocol: HEK293 ENT1 and HEK293 EV cells were seeded at a density of 5 x 10^4 cells per well in 24-well plates and cultured for 4 days. Before the uptake assay, cells were starved in serum-free minimum essential medium at 37 °C for 3 h to activate the ENT1 transporter. The assays were performed in Krebs-Ringer buffer with pH 7.4 supplemented with 25 mM sodium bicarbonate and 1.2 mM calcium chloride dihydrate. […] 200 nM nitrobenzylthioinosine was also used as the positive control for ENT1 inhibition.
Starved cells were first incubated with respective inhibitor solution or blank Krebs-Ringer buffer for 30 min at 37 °C. […] To terminate the assay, ice-cold Dulbecco’s phosphate-buffered saline was added to cells. Cells were then washed twice with ice-cold Dulbecco’s phosphate-buffered saline and lysed with 1% SDS at room temperature for 20 min. […] The drug uptake was normalized against protein content. Changes in drug uptake between groups were calculated using the mean uptake values of individual groups.

[1] = parameters: method as in PMID 26034880; conditions: DPV ring clinical study (IPM 026); cited from earlier work
MRP1 = MRP1 (Homo sapiens, UniProt P33527); assay: ATPase assay (ADP-Glo Max) in MRP1 vesicles; assay type: biochemical; parameters: purchased Thermo Fisher Scientific; conditions: DPV 20 μM; N-ethylmaleimide-S-glutathione 10 mM; 60 min, 37 °C
Protocol: ATPase activity of MRP1 or MRP4 in transporter overexpressing membrane vesicles (10 μg of protein per assay) was measured by the ADP-Glo Max assay according to manufacturer’s protocol. The assay quantified the amount of ADP produced by the membrane vesicles over 60 min at 37 °C in the ATPase assay buffer (50 mM Tris-MOPS, 50 mM potassium chloride, 5 mM sodium azide, 2 mM dithiothreitol, 2 mM glutathione, 0.1 mM EGTA-Tris, and 10 mM magnesium chloride at pH 7.0). DPV was tested at 20 μM and compared to the baseline ATPase activity. A known MRP1 substrate, N-ethylmaleimide-S-glutathione (prepared by mixing N-ethylmaleimide and glutathione at a 1:1 molar ratio), at 10 mM and a known MRP4 substrate, prostaglandin E2, at 20 μM were used as positive controls. The reaction was initiated with 5 mM ATP and quenched with the ADP-Glo detection buffer. The amount of ADP produced was quantified by recording luminescence on a SpectraMax M3 plate reader (Molecular Devices, San Jose, CA, USA).

HEC-1-A cells = assay: Tight junction disruption, TEER of HEC-1-A monolayers in Ussing chamber; assay type: cell-based, human; conditions: apical treatment in HBSS without Ca/Mg; DPV 5 μM, MIC 5 μM, combination 5 μM each, EGTA 2 mM
Protocol: HEC-1-A cells were seeded at a density of 9000 cells per cm^2 onto 0.4 μm permeable snapwell inserts (Corning Inc., Corning, NY, USA). […] Only monolayers displaying TEER values above the threshold indicating confluency (130 Ωcm^2) were considered qualified to be used in this study.
To evaluate tight junction disruption, qualified HEC-1-A cell monolayers were mounted onto the Ussing Chamber apparatus (Physiologic Instruments, San Diego, CA, USA) to monitor TEER values. After equilibrating cells with HBSS at 37 °C for 20 min, buffer in basolateral chambers was replaced with HBSS without calcium or magnesium (HBSS Ca^−&Mg^−), while buffer in the apical chambers was replaced with respective treatment solution in HBSS Ca^−&Mg^-. Treatments included 5 μM DPV, 5 μM MIC, and 5 μM DPV with 5 μM MIC. 2 mM EGTA, a known tight junction disruptor that decreases TEER, was used as the positive control and blank HBSS Ca^-&Mg^- was used as negative control. Cells were incubated at 37 °C for 80 min and the obtained TEER values were normalized against initial measurements at time 0.

T1 sequence (P08183 whole entry): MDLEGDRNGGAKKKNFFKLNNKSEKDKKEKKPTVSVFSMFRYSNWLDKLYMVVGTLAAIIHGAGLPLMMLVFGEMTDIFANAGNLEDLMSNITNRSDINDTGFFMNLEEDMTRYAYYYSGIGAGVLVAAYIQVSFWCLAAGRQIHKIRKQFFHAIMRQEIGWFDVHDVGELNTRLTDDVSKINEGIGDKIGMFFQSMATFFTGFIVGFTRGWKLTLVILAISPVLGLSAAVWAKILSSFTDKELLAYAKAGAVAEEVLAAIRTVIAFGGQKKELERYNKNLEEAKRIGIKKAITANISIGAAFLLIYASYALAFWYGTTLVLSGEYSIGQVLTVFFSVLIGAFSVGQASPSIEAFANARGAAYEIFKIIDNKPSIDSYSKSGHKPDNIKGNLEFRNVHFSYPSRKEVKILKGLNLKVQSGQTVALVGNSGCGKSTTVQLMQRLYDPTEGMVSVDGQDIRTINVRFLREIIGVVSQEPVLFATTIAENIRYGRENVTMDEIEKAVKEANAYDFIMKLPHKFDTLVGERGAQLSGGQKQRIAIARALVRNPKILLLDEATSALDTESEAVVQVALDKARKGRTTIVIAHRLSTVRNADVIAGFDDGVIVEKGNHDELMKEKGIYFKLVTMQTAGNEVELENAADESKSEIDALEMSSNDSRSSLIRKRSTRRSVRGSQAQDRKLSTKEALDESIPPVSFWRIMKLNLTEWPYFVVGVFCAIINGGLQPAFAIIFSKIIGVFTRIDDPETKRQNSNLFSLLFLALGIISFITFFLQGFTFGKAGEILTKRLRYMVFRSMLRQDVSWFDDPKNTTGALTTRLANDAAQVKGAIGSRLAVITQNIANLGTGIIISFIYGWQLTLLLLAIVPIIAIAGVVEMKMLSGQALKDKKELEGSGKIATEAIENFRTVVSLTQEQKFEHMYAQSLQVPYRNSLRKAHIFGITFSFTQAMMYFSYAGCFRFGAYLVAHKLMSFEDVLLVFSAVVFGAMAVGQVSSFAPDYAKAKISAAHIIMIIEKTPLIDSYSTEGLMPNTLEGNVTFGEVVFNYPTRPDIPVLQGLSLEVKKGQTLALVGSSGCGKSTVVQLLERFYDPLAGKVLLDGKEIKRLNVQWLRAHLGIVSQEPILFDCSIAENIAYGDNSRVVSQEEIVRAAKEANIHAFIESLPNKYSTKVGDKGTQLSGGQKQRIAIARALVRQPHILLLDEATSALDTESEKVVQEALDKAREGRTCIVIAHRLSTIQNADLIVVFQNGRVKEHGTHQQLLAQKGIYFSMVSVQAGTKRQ
Sequence of MRP1 (P33527 whole entry): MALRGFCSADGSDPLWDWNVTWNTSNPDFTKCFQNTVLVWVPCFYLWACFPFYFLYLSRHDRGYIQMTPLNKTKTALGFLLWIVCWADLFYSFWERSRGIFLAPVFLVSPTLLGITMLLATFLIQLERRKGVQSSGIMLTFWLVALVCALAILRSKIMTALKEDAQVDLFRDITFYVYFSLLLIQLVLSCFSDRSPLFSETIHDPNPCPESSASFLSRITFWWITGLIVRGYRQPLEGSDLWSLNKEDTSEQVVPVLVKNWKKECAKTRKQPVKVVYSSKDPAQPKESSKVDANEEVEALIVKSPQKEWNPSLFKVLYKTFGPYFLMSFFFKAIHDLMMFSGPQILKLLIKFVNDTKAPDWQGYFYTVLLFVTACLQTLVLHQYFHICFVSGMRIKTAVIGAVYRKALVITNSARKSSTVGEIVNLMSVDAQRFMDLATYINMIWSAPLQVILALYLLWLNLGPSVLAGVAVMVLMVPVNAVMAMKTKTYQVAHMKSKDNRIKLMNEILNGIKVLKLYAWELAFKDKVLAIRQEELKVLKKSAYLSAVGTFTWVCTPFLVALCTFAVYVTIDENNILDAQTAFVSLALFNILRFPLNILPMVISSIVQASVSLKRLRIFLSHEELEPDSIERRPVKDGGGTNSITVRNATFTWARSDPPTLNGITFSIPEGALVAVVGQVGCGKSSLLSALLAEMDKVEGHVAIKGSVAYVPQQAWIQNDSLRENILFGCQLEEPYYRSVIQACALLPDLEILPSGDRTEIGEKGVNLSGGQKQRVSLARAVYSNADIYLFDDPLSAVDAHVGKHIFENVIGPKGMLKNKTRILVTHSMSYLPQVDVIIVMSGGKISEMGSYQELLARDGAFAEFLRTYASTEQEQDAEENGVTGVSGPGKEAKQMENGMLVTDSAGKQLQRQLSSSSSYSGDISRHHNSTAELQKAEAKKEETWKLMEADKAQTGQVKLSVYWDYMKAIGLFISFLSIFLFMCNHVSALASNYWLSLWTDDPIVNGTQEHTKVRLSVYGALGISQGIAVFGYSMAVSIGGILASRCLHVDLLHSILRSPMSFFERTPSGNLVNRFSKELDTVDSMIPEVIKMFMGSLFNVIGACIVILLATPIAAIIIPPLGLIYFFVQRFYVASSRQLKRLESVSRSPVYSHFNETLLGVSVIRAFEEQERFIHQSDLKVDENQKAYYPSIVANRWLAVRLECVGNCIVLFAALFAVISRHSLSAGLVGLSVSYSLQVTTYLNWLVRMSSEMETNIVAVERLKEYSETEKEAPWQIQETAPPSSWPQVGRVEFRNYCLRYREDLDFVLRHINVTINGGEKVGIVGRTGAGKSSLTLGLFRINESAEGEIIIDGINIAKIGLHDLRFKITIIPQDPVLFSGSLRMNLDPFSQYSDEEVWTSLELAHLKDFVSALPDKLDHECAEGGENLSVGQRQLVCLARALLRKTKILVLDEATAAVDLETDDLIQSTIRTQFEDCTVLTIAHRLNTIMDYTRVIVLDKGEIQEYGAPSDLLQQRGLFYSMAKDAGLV

DPV ER in MDCKII P-gp cells with verapamil, reduced to % of ER without (P-gp; 0.5 μM DPV, 100 μM verapamil): 65%
Impact on Papp of digoxin across MDCKII P-gp monolayers (either direction) (P-gp; 5 μM DPV, 1 μM digoxin): no significant impact
Substrate status for P-gp (P-gp; cellular system): not a substrate
efflux ratio at 90 min, 0.5 μM (P-gp; dog, MDCK-MDR1, pH 7.4, 0.5 μM DPV, read-out: Net flux ratio (ER MDCKII P-gp / ER MDCKII WT)): 1.31
Cellular uptake of thymidine in HEK293 ENT1 cells, reduced to % of control (ENT1; 5 nM thymidine, nitrobenzylthioinosine 200 nM, DPV 5 μM): no significant impact
Cellular uptake of DPV in HEK293 ENT1 cells compared with HEK293 EV cells (ENT1; 0.5 μM DPV, 10 min, 37 °C): similar
Substrate status for ENT1 (ENT1; cellular system): not a substrate
ATPase activity in MRP1 vesicles, % of baseline (MRP1): no significant stimulation
Relative TEER percentage of baseline value at 80 min (HEC-1-A cells): 94.7 ± 7.8%
SMILES: Cc1cc(C)c(Nc2ccnc(Nc3ccc(C#N)cc3)n2)c(C)c1 [DPV, dapivirine]
DPV tissue concentration [1]: 1.8 µM
